Test results from patent publication US8703722B2, “Inhibitors of F18+ E coli binding” (priority 2008, dated 2014).

Assays:
[1] = system: F18 positive reference E. coli strain (107/86); test: In vitro villous adhesion assay after treatment of porcine villi with agents; type: cell-based, Escherichia coli; conditions: villi of four pigs treated 1 h at room temperature; 1% Triton X-100; 10 mM NaIO4 in 0.2M sodium acetate pH 4.5
Description: (§1) The nature of the F18R on porcine small intestinal villous enterocytes was investigated using an in vitro villous adhesion inhibition assay (Cox, E., Houvenaghel, A., 1993. Vet. Microbiol. 34(1), 7-18; Verdonck, F., Cox, E., van Gog, K., Van der Stede, Y., Duchateau, L., Deprez, P., Goddeeris, B. M., 2002. Vaccine 20(23-24), 2995-3004). Briefly, a 20 cm intestinal segment was collected from the mid jejunum of a euthanized pig, rinsed three times with ice cold PBS, and fixed with Krebs-Henseleit buffer (160 mM, pH 7.4) containing 1% (v/v) formaldehyde for 30 min at 4° C. Thereafter, the villi were gently scraped from the mucosae with a glass slide and stored in Krebs-Henseleit buffer at 4° C. Treatment of villi with acetone, methanol, 1% Triton® X-100, 10 mM NaIO4 in 0.2M sodium acetate, pH 4.5, or 0.2M sodium acetate, pH 4.5, without NaIO4, respectively, was performed at room temperature on a rotating wheel in a volume of 500 μl during 1 h. Next, the villi were washed 6 times with Krebs-Henseleit buffer followed by addition of 4×10^8 bacteria of the F18 positive reference E. coli strain (107/86), or the F4ac-expressing E. coli strain GIS 26, to an average of 50 villi in a total volume of 500 μl PBS, supplemented with 1% (w/v) D-mannose in order to prevent adhesion mediated by type 1 pili. These mixtures were incubated at room temperature for 1 h while being gently shaken. Villi were examined by phase-contrast microscopy at a magnification of 600, and the number of bacteria adhering along 50 μm brush border was quantitatively evaluated by counting the number of adhering bacteria at 20 randomly selected places, after which the mean bacterial adhesion was calculated.
(§2) To examine the character of the F18R, intestinal villi isolated from four pigs were treated with different agents that affect lipids or carbohydrates on the enterocyte cell membrane. Treatment was followed by assessment of adhesion of F18-fimbriated E. coli to the villus epithelium.

[2] = system: F4ac-expressing E. coli strain GIS 26; test: In vitro villous adhesion assay after treatment of porcine villi with agents (control strain); type: cell-based, Escherichia coli; conditions: villi treated 1 h at room temperature; 1% Triton X-100; 10 mM NaIO4 in 0.2M sodium acetate pH 4.5
Description: as §1, §2

[3] = system: recombinant F18 fimbriae-expressing Escherichia coli (pIH120); test: Chromatogram binding assay: 35S-labelled F18 fimbriae-expressing E. coli to glycosphingolipids on thin-layer chromatograms; conditions: for Binding of F18-fimbriated E. coli (in words): chromatogram binding assay, F18-expressing strain HB101(pIH120); for Detection limit of binding of F18-fimbriated E. coli: dilutions of glycosphingolipids on thin-layer chromatograms
Method: Recombinant E. coli strains expressing whole F18 fimbriae (HB101(pIH120), or F18 fimbriae with deletion of the FedF adhesive subunit (HB101(pIH126)) (Imberechts et al., 1992; 1996), were grown on Iso Sensitest agar plates (Oxoid, Basingstoke, Hampshire, England) supplemented with ampicillin (100 μg/ml) at 37° C. over night. For metabolic labeling, the culture plates were supplemented with 10 μl ^35S-methionine (400 μCi; Amersham Pharmacia Biotech). Bacteria were harvested, washed three times in PBS, and resuspended in PBS containing 2% (w/v) bovine serum albumin, 0.1% (w/v) NaN3 and 0.1% (w/v) Tween 20 (BSA/PBS/TWEEN) to a bacterial density of 1×10^8 colony forming units/ml.
Aluminium- or glass-backed silica gel 60 high performance thin-layer chromatography plates (Merck, Darmstadt, Germany) were used for thin-layer chromatography, and eluted with chloroform/methanol/water (60:35:8, by volume) as solvent system. The different glycosphingolipids were applied to the plates in quantities of 0.002-4 μg of pure glycosphingolipids and 40 μg of glycosphingolipid mixtures. Chemical detection was done with anisaldehyde (Waldi D, 1962. Sprühreagentien für die dünnschicht-chromatographie, p. 496-515. In Stahl, E. (ed.), Dünnschicht-Chromatographie. Springer-Verlag, Berlin).
Binding of radiolabelled bacteria to glycosphingolipids on thin-layer chromatograms was done as described previously (Hansson G C, Karlsson K-A, Larson G, Strömberg N, Thurin J, 1985. Anal. Biochem. 146:158-163). Dried chromatograms were dipped in diethylether/n-hexane (1:5 v/v) containing 0.5% (w/v) polyisobutylmethacrylate for 1 min, dried, and then blocked with BSA/PBS/TWEEN for 2 h at room temperature. Thereafter, the plates were incubated with ^35S-labeled bacteria (1-5×10^6 cpm/ml) diluted in BSA/PBS/TWEEN for another 2 h at room temperature. After washing six times with PBS, and drying, the thin-layer plates were autoradiographed for 12 h using XAR-5 x-ray films (Eastman Kodak, Rochester, N.Y.).

[4] = system: F18-positive E. coli strain 107/86; test: Carbohydrate inhibition in the in vitro villous adhesion assay (bacteria pre-incubated with saccharide); type: cell-based, Escherichia coli; conditions: for Inhibition of F18+ E. coli adherence to porcine intestinal villi: Example 18, 1 mg saccharide in 100 μl PBS
Description: as §1
The F18-positive E. coli strain 107/86 (8×10^7 bacteria) was incubated with different concentrations (10 mg/ml, 1 mg/ml, […]) of blood group H type 1 pentasaccharide (Fucα2Galβ3GlcNAcβ3Galβ4Glc) or lacto-N-tetraose saccharide (Galβ3GlcNAcβ3Galβ4Glc) (Glycoseparations, Moscow, Russia) in a final volume of 100 μl PBS, for 1 h at room temperature, while being gently shaken. The mixtures were then added to the villi, and again incubated for 1 h at room temperature with gentle shaking. Thereafter, the villi were examined by phase-contrast microscopy at a magnification of 600, and the number of bacteria adhering along a […] brush border was quantitatively evaluated by counting the number of adhering bacteria at 20 randomly selected places, after which the mean bacterial adhesion was calculated. Villi of two different F18R-positive pigs were used, and the countings were performed in triplicate.
The F18-positive E. coli strain 107/86 (8×10^7 bacteria) was incubated with 1 mg of blood group H type 1 pentasaccharide (H5-1, Fucα2Galβ3GlcNAcβ3Galβ4Glc), blood group A type 1 hexasaccharide (A6-1, GalNAcα3(Fucα2)Galβ3GlcNAcβ3Galβ4Glc), blood group B type 1 hexasaccharide (B6-1, Galα3(Fucα2)Galβ3GlcNAcβ3Galβ4Glc) or lacto-N-tetraose saccharide (LNT, Galβ3GlcNAcβ3Galβ4Glc) (Elicityl, Grenoble, France) in a final volume of 100 μl PBS, for 1 h at room temperature, while being gently shaken. The mixtures were then added to the villi, and again incubated for 1 h at room temperature with gentle shaking. Thereafter, the villi were examined by phase-contrast microscopy, and adhering bacteria were quantified as described above. Villi of two different F18R-positive pigs were used, and the countings were performed in triplicate.
The mixtures were then added to the villi, and again incubated for 1 h at room temperature with gentle shaking. Thereafter, the villi were examined by phase-contrast microscopy, and adhering bacteria were quantified as described above. Villi of one F18R-positive pig was used, and the countings were performed in duplicate.

[5] = 1 h pre-incubation, villi of two pigs
[6] = Example 17, 1 mg/ml saccharide, 100 μl PBS, 1 h pre-incubation, villi of two pigs
[7] = Example 17, 10 mg/ml saccharide, 100 μl PBS, 1 h pre-incubation, villi of two pigs
[8] = Example 17, 100 mg/ml saccharide (so in the source), 100 μl PBS, 1 h pre-incubation, villi of two pigs

CO [methanol]
Adhesion of F18-fimbriated E. coli to porcine intestinal villi after treatment of the villi [1]: completely abolished
Adhesion of control F4ac-fimbriated E. coli strain to porcine intestinal villi after treatment of the villi [2]: no or only little effect

Galβ3GlcNAcβ3Galβ4Glcβ1Cer [No. 20, reference compound]
Binding of F18-fimbriated E. coli (in words) [3]: devoid of FedF-mediated binding activity

GalNAcα3(Fucα2)Galβ3GalNAcβ3Galα4Galβ4Glcβ1Cer [No. 32]
Detection limit of binding of F18-fimbriated E. coli [3]: approximately 0.8 μg

Galα3(Fucα2)Galβ4GlcNAcβ3Galβ4Glcβ1Cer [No. 16, reference compound]
Binding of F18-fimbriated E. coli (in words) [3]: no type 2 core counterparts of these compounds were recognized

Triton® X-100
Adhesion of F18-fimbriated E. coli to porcine intestinal villi after treatment of the villi [1]: completely abolished
Adhesion of control F4ac-fimbriated E. coli strain to porcine intestinal villi after treatment of the villi [2]: no or only little effect

GalNAcα3(Fucα2)Galβ4(Fucα3)GlcNAcβ3Galβ4Glcβ1Cer [No. 19, reference compound]
Binding of F18-fimbriated E. coli (in words) [3]: no type 2 core counterparts of these compounds were recognized

Fucα2Galβ3GalNAcβ4Galβ4Glcβ1Cer [No. 11, reference compound]
Binding of F18-fimbriated E. coli (in words) [3]: absence of binding

GalNAcα3(Fucα2)Galβ3GlcNAcβ3Galβ4Glcβ1Cer [A-I]
Binding of F18-fimbriated E. coli (in words) [3]: F18-fimbriated E. coli binding

Fucα2Galβ3GlcNAcβ3Galβ4Glcβ1Cer [O-I]
Binding of F18-fimbriated E. coli (in words) [3]: F18 fimbriae-binding

GalNAcα3(Fucα2)Galβ3(Fucα4)GlcNAcβ3Galβ4Glcβ1Cer [No. 26]
Binding of F18-fimbriated E. coli (in words) [3]: bound
Detection limit of binding of F18-fimbriated E. coli [3]: 0.8 µg

CC(=O)NC1C(OC2C(O)C(CO)OC(OC3C(O)C(CO)OC(OC4C(O)C(CO)OC(OC5C(CO)OC(O)C(O)C5O)C4O)C3NC(C)=O)C2OC2OC(C)C(O)C(O)C2O)OC(CO)C(O)C1O (centres unmarked) [A6-1, GalNAcα3(Fucα2)Galβ3GlcNAcβ3Galβ4Glc]
Inhibition of F18+ E. coli adherence to porcine intestinal villi [4, 5]: 72.9%

C[C@@H]1O[C@@H](O[C@H]2C(O)O[C@H](CO)[C@H](O)[C@@H]2O)[C@@H](O)[C@H](O)[C@@H]1O (some centres unmarked) [blood group H disaccharide, Fucα2Gal]
Inhibition of adherence of F18-positive E. coli to porcine intestinal villi ([4]; Example 21, 0.2 mg in 100 μl PBS, villi of one pig): 5.1%
Reduction of adherence of F18-positive E. coli to porcine intestinal villi ([4]; Example 21, 1 mg in 100 μl PBS, villi of one pig): 83.7%

CC(=O)N[C@H]1[C@H](O[C@H]2[C@@H](O)[C@@H](CO)O[C@@H](O[C@H]3[C@H](O)[C@@H](O)C(O)O[C@@H]3CO)[C@@H]2O)O[C@H](CO)[C@@H](O)[C@@H]1O[C@@H]1O[C@H](CO)[C@H](O)[C@H](O)[C@H]1O[C@@H]1O[C@@H](C)[C@@H](O)[C@@H](O)[C@@H]1O (some centres unmarked) [H5-1, Fucα2Galβ3GlcNAcβ3Galβ4Glc]
Reduction (inhibition) of adherence of F18-positive E. coli to porcine intestinal villi [4, 6]: 68.5%
Reduction (inhibition) of adherence of F18-positive E. coli to porcine intestinal villi [4, 7]: 87.1%
Inhibition of adherence of F18-positive E. coli to porcine intestinal villi [4, 8]: 1.4%
Inhibition of F18+ E. coli adherence to porcine intestinal villi [4, 5]: 52.4%

Galα3(Fucα2)Galβ3(Fucα4)GlcNAcβ3Galβ4Glcβ1Cer [No. 27]
Binding of F18-fimbriated E. coli (in words) [3]: bound

Fucα2Galβ4GlcNAcβ3Galβ4Glcβ1Cer [No. 14, reference compound]
Binding of F18-fimbriated E. coli (in words) [3]: no type 2 core counterparts of these compounds were recognized

Galα3(Fucα2)Galβ3GlcNAcβ3Galβ4Glcβ1Cer [No. 24]
Binding of F18-fimbriated E. coli (in words) [3]: bound
Detection limit of binding of F18-fimbriated E. coli [3]: approximately 0.08 μg

Fucα2Galβ3GlcNAcβ3Galβ4Glcβ1Cer [No. 23]
Binding of F18-fimbriated E. coli (in words) ([3]; listed as H type 1 pentaglycosylceramide): bound
Detection limit of binding of F18-fimbriated E. coli [3]: 2 µg

CC(=O)NC1C(OC2C(O)C(CO)OC(OC3C(CO)OC(O)C(O)C3O)C2O)OC(CO)C(O)C1OC1OC(CO)C(O)C(OC2OC(CO)C(O)C(O)C2O)C1OC1OC(C)C(O)C(O)C1O (centres unmarked) [B6-1, Galα3(Fucα2)Galβ3GlcNAcβ3Galβ4Glc]
Inhibition of F18+ E. coli adherence to porcine intestinal villi [4, 5]: 86.8%

GalNAcα3(Fucα2)Galβ3GlcNAcβ3Galβ4Glcβ1Cer [No. 25]
Binding of F18-fimbriated E. coli (in words) ([3]; listed as A type 1 hexaglycosylceramide): bound
Detection limit of binding of F18-fimbriated E. coli [3]: approximately 0.08 μg

Fucα2Galβ3(Fucα4)GlcNAcβ3Galβ4Glcβ1Cer [No. 22, reference compound]
Binding of F18-fimbriated E. coli (in words) [3]: not recognized

GalNAcα3(Fucα2)Galβ4GlcNAcβ3Galβ4Glcβ1Cer [No. 17, reference compound]
Binding of F18-fimbriated E. coli (in words) [3]: no type 2 core counterparts of these compounds were recognized

CC(=O)N[C@H]1[C@H](O[C@H]2[C@@H](O)[C@@H](CO)O[C@@H](O[C@H]3[C@H](O)[C@@H](O)C(O)O[C@@H]3CO)[C@@H]2O)O[C@H](CO)[C@@H](O)[C@@H]1O[C@@H]1O[C@H](CO)[C@H](O)[C@H](O)[C@H]1O (some centres unmarked) [LNT, Galβ3GlcNAcβ3Galβ4Glc, reference compound]
Reduction (inhibition) of adherence of F18-positive E. coli to porcine intestinal villi [4, 6]: 5.8%
Reduction (inhibition) of adherence of F18-positive E. coli to porcine intestinal villi [4, 7]: 5.8%
Inhibition of adherence of F18-positive E. coli to porcine intestinal villi [4, 8]: 4.2%
Inhibition of F18+ E. coli adherence to porcine intestinal villi [4, 5]: 2.8%
